Data: ChEMBL document CHEMBL1817550, “Synthesis and biological evaluation of some novel cyclic-imides as hypoglycaemic, anti-hyperlipidemic agents” (Eur J Med Chem, 2011)
Active and inactive are the calls of the source. The rule behind the calls is not given here.

How the values were obtained:
Rattus norvegicus [1] = experiment: Antihyperlipidemic activity in streptozotocin-induced diabetic rat model assessed as serum cholesterol level at 10 mg/kg/day, po dosed via gavage for 14 days administered 3 days after streptozotocin challenge by UV-spectrophotometry; assay type: functional
Rattus norvegicus [2] = experiment: Hypoglycemic activity in streptozotocin-induced diabetic rat model assessed as decrease in serum glucose level at 10 mg/kg/day, po dosed via gavage for 14 days administered 3 days after streptozotocin challenge by UV-spectrophotometry; assay type: functional
Rattus norvegicus [3] = experiment: Antihyperlipidemic activity in high-cholesterol diet-induced hypercholesterolemia Swiss albino rat model assessed as reduction in serum cholesterol level at 10 mg/kg/day, po administered via gavage simultaneously with diet cocktail for 14 days by UV-spectrophotometry relative to untreated control; assay type: functional; conditions: 336 h
Rattus norvegicus [4] = experiment: Antihyperlipidemic activity in streptozotocin-induced diabetic rat model assessed as serum triglyceride level at 10 mg/kg/day, po dosed via gavage for 14 days administered 3 days after streptozotocin challenge by UV-spectrophotometry; assay type: functional
Rattus norvegicus [5] = experiment: Toxicity in healthy rat assessed as incidence of less responsive state at 2000 to 7000 mg/kg, po measured after 2 to 6 hrs; assay type: organism-based; parameters: route oral; conditions: in vivo
Rattus norvegicus [6] = experiment: Antihyperlipidemic activity in high-cholesterol diet-induced hypercholesterolemia Swiss albino rat model assessed as reduction in serum cholesterol level at 160 mg/kg/day, po administered via gavage simultaneously with diet cocktail for 14 days by UV-spectrophotometry relative to untreated control; assay type: functional, organism-based
[7] = Toxicity in intra-gastrically dosed healthy rat administered as single dose; assay type: organism-based; conditions: in vivo, po
Rattus norvegicus [8] = experiment: Toxicity in healthy rat assessed as incidence of mortality at 2000 to 7000 mg/kg, po measured after 24 hrs; assay type: organism-based; parameters: dose 2000-7000 mg/kg, route oral; conditions: in vivo
Rattus norvegicus [9] = experiment: Toxicity in healthy rat at 2000 to 7000 mg/kg, po measured after 24 hrs; assay type: organism-based; parameters: dose 2000-7000 mg/kg, route oral; conditions: in vivo

Structure (SMILES) | Activity (Rattus norvegicus [1]) | inhibition in vivo at 10 mg/kg/day (Rattus norvegicus [2]) | inhibition in vivo at 10 mg/kg/day (Rattus norvegicus [3]) | Activity (Rattus norvegicus [4]) | Activity (Rattus norvegicus [5]) | Activity (Rattus norvegicus [6]) | LD50 [7] | Activity (Rattus norvegicus [8]) | Activity (Rattus norvegicus [9])
O=C1c2c(Br)c(Br)c(Br)c(Br)c2C(=O)N1CCc1ccccn1 | 164.6 mg/dL | 18% | 20% | 91.33 mg/dL | – | – | – | – | –
O=C1c2cc(Cl)c(Cl)cc2C(=O)N1CCc1ccccn1 | 92.33 mg/dL | 55% | 56% | 71.6 mg/dL | Toxic | Active | 5260 mg/kg | Non-toxic | Non-toxic
O=C1[C@@H]2[C@H](C(=O)N1CCc1ccccn1)C1(Cl)C(Cl)=C(Cl)C2(Cl)C1(Cl)Cl | 89.75 mg/dL | 7% | 53% | 71 mg/dL | – | – | – | – | –
O=C1[C@@H]2[C@H](C(=O)N1CCN1CCOCC1)C1(Cl)C(Cl)=C(Cl)C2(Cl)C1(Cl)Cl | 152.3 mg/dL | – | 7% | 91.33 mg/dL | – | – | – | – | –
O=C1c2c(Br)c(Br)c(Br)c(Br)c2C(=O)N1c1ccncc1 | 171 mg/dL | – | 13% | 120 mg/dL | – | – | – | – | –
O=C1c2c(Cl)c(Cl)c(Cl)c(Cl)c2C(=O)N1Cc1ccccn1 | 105 mg/dL | 23% | 47% | 82.66 mg/dL | – | – | – | – | –
O=C1c2cc(Cl)c(Cl)cc2C(=O)N1c1ccncc1 | 146 mg/dL | – | 19% | 112 mg/dL | – | – | – | – | –
O=C1c2cc(Cl)c(Cl)cc2C(=O)N1c1ncccn1 | 96 mg/dL | 32% | 58% | 70.66 mg/dL | Toxic | Active | 4240 mg/kg | Non-toxic | Non-toxic
O=C1c2cc(Cl)c(Cl)cc2C(=O)N1Cc1ccccn1 | 155.3 mg/dL | – | 11% | 93 mg/dL | – | – | – | – | –
O=C1c2c(Br)c(Br)c(Br)c(Br)c2C(=O)N1CCN1CCOCC1 | 161.3 mg/dL | 20% | 7% | 80 mg/dL | – | – | – | – | –
O=C1c2c(Cl)c(Cl)c(Cl)c(Cl)c2C(=O)N1c1ncccn1 | 117 mg/dL | 5% | 3% | 123 mg/dL | – | – | – | – | –
O=C1[C@@H]2[C@H](C(=O)N1c1ccccn1)C1(Cl)C(Cl)=C(Cl)C2(Cl)C1(Cl)Cl | 129.6 mg/dL | 25% | 33% | 94.33 mg/dL | – | – | – | – | –
O=C1c2c(Cl)c(Cl)c(Cl)c(Cl)c2C(=O)N1CCc1ccccn1 | 107.2 mg/dL | – | 48% | 80 mg/dL | – | – | – | – | –
O=C1c2c(Cl)c(Cl)c(Cl)c(Cl)c2C(=O)N1CCN1CCOCC1 | 105.7 mg/dL | 10% | 46% | 100.3 mg/dL | – | – | – | – | –
O=C1c2c(Br)c(Br)c(Br)c(Br)c2C(=O)N1Cc1ccccn1 | 92.33 mg/dL | 35% | 54% | 82.66 mg/dL | Toxic | Active | 5010 mg/kg | Non-toxic | Non-toxic
O=C1c2c(Cl)c(Cl)c(Cl)c(Cl)c2C(=O)N1c1ccncc1 | 129.5 mg/dL | 3% | 44% | 110.6 mg/dL | – | – | – | – | –
O=C1[C@@H]2[C@H](C(=O)N1Cc1ccccn1)C1(Cl)C(Cl)=C(Cl)C2(Cl)C1(Cl)Cl | 149.3 mg/dL | – | 4% | 123 mg/dL | – | – | – | – | –
O=C1c2c(Cl)c(Cl)c(Cl)c(Cl)c2C(=O)N1c1ccccn1 | 140.3 mg/dL | – | 9% | 120 mg/dL | – | – | – | – | –
O=C1c2cc(Cl)c(Cl)cc2C(=O)N1CCN1CCOCC1 | 88.66 mg/dL | 30% | 42% | 97.66 mg/dL | – | – | – | – | –
O=C1c2cc(Cl)c(Cl)cc2C(=O)N1c1ccccn1 | 126.2 mg/dL | 3% | 17% | 90.5 mg/dL | – | – | – | – | –
COc1ccc(Cl)cc1C(=O)NCCc1ccc(S(=O)(=O)NC(=O)NC2CCCCC2)cc1 [GLYBURIDE] | 102.6 mg/dL | 52% | 11% | 87.6 mg/dL | – | – | – | – | –
O=C1c2c(Br)c(Br)c(Br)c(Br)c2C(=O)N1c1ncccn1 | 196 mg/dL | 28% | 19% | 110.6 mg/dL | – | – | – | – | –
O=C1c2c(Br)c(Br)c(Br)c(Br)c2C(=O)N1c1ccccn1 | 150.3 mg/dL | – | 21% | 100.3 mg/dL | – | – | – | – | –
O=C1[C@@H]2[C@H](C(=O)N1c1ncccn1)C1(Cl)C(Cl)=C(Cl)C2(Cl)C1(Cl)Cl | 162.3 mg/dL | – | 44% | 89.33 mg/dL | – | – | – | – | –
O=C1[C@@H]2[C@H](C(=O)N1c1ccncc1)C1(Cl)C(Cl)=C(Cl)C2(Cl)C1(Cl)Cl | 169.3 mg/dL | 27% | 41% | 77 mg/dL | – | – | – | – | –
